In patent publication US10227324B2 (Shanghai Haiyan Pharmaceutical Technology Co., Ltd., priority 2014, dated 2019) one finds IC50 data, which are given here for 21 compounds.

Experiment [1] has as its target T1, PI3K-α kinase (p110α/p85α) (Homo sapiens, UniProt P42336).
T1 construct: purchased Invitrogen PV4788
In words: Determination of PI3K kinase activity (ADP Transcreener, fluorescence polarization). The settings on record: ATP 10 μM. It is filed as biochemical. The method, then:
(§1) The inhibition of PI3K kinase activity by the compound to be tested was determined by the following method. The working concentration of each component in the 25 μL enzyme reaction system was: p110α/p85α 3 ng (or p110β/p85α 60 ng, or p110δ/p85α 90 ng, or p110γ 100 ng), ATP 10 μM, PIP2: PS (Invitrogen PV5100) 30 μM and the DMSO concentration was 2% after addition of the compound to be tested.
(§2) At the time of the test, the compound to be tested was dissolved in dimethylsulfoxide (DMSO) according to the desired concentration of the experiment. The compound to be tested was gradiently diluted 3 times (0.00046-1 μM, 8 concentration points) with 10% DMSO. 5 μL of the compound to be tested was added to each well of a 96-well plate (Greiner 675076) in duplicate. […] 10 μL of ATP/PIP2: PS and 10 μL of the PI3K enzyme working solution were added to each well in a 96-well plate. The plate was shaken and mixed uniformly, and then incubated at 25° C. for 1 hour. At the same time, ADP and ATP (0.01 μM, 0.02 μM, 0.04 μM, 0.06 μM, 0.08 μM[…], 0.1 μM, 0.25 μM, 0.5 μM, 1 μM, 2 μM, 5 μM, 10 μM, 12 concentration points) were diluted with buffer to set the standard curve. After completion of the enzyme reaction, 25 μL of ADP assay solution (1% 100×ADP tracer, 0.79% ADP antibody and 10% 10× reaction stop solution) was added and incubated at 25° C. for 1 hour. Fluorescence polarization value [mP] of each well was measured with a Perkin Elmer Victor X5 Fluorescent Microplate. The ADP concentration [ADP] was calculated from the ADP/ATP standard curve and the IC50 values were calculated using the XLFit software.
Background: Fluorescence polarisation rises when a labelled molecule tumbles more slowly, as on binding a larger partner.

Experiment [2] has as its target T2, PI3K-γ kinase (p110γ) (Homo sapiens, UniProt P48736).
T2 construct: purchased Invitrogen PV4786
Described as above. It is filed as biochemical. The settings on record: Table 1; ATP 10 μM; read-out: PI3K-γ/nM (IC50 of inhibitory activity against PI3K kinase). The method, then: The PI3K kinase used in the experiment: p110α/p85α (Invitrogen PV4788), p110β/p85α (Millipore 14-603), p110δ/p85α (Millipore 14-604M), and p110γ (Invitrogen PV4786).
as §1
as §2, with “duplicate. 2.5× buffer was prepared and 1 μL of DTT (Millipore 20-265) was added to each 800 μL of 2.5× buffer.” for “duplicate.”

Experiment [3] concerns the target T3, PI3K-β kinase (p110β/p85α) (Homo sapiens, UniProt P42338).
T3 construct: purchased Millipore 14-603
The experiment is described as above. It is filed as biochemical. The conditions noted are these: Table 1; ATP 10 μM; read-out: PI3K-β/nM (IC50 of inhibitory activity against PI3K kinase). The method, then: as §1, §2

Experiment [4] addresses T4, PI3K-δ kinase (p110δ/p85α) (Homo sapiens, UniProt O00329).
T4 construct: purchased Millipore 14-604M
The experiment is described as above. In kind it is biochemical. The settings on record: Table 1; ATP 10 μM; read-out: PI3K-δ/nM (IC50 of inhibitory activity against PI3K kinase). On the procedure:
as §1, §2

In experiment [5] the test system is T47D cells. As to the kind of experiment: Cell inhibitory activity detected by MTT assay, T47D. It is filed as cell-based. The settings on record: Homo sapiens, T47D, 72 h, read-out: T47D cell (IC50/nM), cell growth inhibition. The method, then: (§3) The MTT assay procedure and steps were carried out as well known to those skilled in the art, and all the reagents used in the methods were commercially available. The cells in logarithmic growth phase were digested with 0.25% EDTA trypsin (Gibco, 25200-056) and resuspended in fresh medium. 90 μL of the cell suspension was inoculated into a 96-well cell culture plate (BD Faclon 353072) with a suitable cell density and cultured at 37° C. under 5% CO2. After the cells adhered, 10 μL of the test compound at different concentrations (0.0046-10 μM, 8 concentration points) was added and incubated for another 72 h. 10 μL of MTT (5 mg/mL PBS solution) (Sigma, M5655) was added to react for 4 h. The absorbance at 492 nm was measured by using Thermo Scientific Multiskan MK3 microplate reader and IC50 was calculated using XLFIT 5.0 software (UK IDBS). T47D cell culture medium: RPMI-1640 medium (Hyclone SH30809.01B)+10% FBS (Gibco 10099-141)
In general terms: Tetrazolium dyes change colour on reduction, which living cells bring about.

Experiment [6] concerns MCF-7 cells. As to the kind of experiment: Cell inhibitory activity detected by MTT assay, MCF-7. In kind it is cell-based. The conditions noted are these: Homo sapiens, MCF7, 72 h, read-out: MCF-7 cell (IC50/nM), cell growth inhibition. The method, then:
as §3, with “MCF-7” for “T47D”, “DMEM” for “RPMI-1640”, “SH30243.01B+10%” for “SH30809.01B)+10%”

Where [7] appears, read: Table 2, read-out: PI3K-α/nM (IC50 of inhibitory activity against PI3K-α kinase).
Where [8] appears, read: Table 1, read-out: PI3K-α/nM (IC50 of inhibitory activity against PI3K kinase).

Like-named read-outs stand apart in the source and are kept apart here.

T4 sequence (O00329 whole entry): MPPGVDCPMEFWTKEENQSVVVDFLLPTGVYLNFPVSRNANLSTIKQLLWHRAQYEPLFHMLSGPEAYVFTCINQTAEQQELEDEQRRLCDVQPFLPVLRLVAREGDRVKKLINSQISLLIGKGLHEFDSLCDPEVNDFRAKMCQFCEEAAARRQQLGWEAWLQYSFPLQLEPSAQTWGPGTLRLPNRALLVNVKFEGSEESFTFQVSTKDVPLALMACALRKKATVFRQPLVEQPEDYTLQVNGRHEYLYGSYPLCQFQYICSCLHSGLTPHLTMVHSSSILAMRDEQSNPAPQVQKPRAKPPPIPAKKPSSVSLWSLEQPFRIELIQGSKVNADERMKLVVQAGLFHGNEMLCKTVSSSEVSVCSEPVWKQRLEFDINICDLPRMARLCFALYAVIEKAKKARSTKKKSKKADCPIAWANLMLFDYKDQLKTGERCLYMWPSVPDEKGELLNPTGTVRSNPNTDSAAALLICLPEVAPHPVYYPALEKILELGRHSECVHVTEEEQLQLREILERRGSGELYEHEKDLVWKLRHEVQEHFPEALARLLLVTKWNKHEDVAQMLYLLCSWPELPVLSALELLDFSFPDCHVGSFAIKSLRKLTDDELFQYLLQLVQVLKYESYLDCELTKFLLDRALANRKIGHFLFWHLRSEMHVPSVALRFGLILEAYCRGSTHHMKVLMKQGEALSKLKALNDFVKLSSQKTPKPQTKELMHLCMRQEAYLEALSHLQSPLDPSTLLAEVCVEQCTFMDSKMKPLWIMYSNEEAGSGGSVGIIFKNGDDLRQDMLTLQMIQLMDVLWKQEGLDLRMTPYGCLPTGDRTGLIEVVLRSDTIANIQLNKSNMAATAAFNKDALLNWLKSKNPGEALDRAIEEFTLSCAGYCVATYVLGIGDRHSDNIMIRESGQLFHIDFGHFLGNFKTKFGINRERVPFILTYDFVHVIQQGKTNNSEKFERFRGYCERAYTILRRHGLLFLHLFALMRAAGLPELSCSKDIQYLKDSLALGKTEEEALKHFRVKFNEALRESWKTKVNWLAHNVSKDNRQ
T4 sequence (P27986 whole entry partner): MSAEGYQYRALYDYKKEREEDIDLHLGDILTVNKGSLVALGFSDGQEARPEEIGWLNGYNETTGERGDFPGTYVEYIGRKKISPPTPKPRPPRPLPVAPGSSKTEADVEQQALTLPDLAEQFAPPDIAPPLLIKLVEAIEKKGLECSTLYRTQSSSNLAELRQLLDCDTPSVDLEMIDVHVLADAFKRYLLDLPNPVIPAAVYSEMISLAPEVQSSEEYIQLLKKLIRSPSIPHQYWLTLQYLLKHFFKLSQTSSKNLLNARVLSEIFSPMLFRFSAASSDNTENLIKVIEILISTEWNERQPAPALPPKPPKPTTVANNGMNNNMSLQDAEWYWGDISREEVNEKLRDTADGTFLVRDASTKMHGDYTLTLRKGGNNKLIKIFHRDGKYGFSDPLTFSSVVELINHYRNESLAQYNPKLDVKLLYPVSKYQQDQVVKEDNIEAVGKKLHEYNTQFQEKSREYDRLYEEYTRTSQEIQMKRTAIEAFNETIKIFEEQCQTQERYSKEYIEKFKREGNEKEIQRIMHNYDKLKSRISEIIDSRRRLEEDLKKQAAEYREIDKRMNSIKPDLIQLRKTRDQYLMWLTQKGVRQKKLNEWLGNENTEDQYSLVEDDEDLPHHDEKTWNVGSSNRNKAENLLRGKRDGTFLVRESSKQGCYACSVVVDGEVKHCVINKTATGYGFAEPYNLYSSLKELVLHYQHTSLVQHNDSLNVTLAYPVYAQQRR
T3 sequence (P42338 whole entry): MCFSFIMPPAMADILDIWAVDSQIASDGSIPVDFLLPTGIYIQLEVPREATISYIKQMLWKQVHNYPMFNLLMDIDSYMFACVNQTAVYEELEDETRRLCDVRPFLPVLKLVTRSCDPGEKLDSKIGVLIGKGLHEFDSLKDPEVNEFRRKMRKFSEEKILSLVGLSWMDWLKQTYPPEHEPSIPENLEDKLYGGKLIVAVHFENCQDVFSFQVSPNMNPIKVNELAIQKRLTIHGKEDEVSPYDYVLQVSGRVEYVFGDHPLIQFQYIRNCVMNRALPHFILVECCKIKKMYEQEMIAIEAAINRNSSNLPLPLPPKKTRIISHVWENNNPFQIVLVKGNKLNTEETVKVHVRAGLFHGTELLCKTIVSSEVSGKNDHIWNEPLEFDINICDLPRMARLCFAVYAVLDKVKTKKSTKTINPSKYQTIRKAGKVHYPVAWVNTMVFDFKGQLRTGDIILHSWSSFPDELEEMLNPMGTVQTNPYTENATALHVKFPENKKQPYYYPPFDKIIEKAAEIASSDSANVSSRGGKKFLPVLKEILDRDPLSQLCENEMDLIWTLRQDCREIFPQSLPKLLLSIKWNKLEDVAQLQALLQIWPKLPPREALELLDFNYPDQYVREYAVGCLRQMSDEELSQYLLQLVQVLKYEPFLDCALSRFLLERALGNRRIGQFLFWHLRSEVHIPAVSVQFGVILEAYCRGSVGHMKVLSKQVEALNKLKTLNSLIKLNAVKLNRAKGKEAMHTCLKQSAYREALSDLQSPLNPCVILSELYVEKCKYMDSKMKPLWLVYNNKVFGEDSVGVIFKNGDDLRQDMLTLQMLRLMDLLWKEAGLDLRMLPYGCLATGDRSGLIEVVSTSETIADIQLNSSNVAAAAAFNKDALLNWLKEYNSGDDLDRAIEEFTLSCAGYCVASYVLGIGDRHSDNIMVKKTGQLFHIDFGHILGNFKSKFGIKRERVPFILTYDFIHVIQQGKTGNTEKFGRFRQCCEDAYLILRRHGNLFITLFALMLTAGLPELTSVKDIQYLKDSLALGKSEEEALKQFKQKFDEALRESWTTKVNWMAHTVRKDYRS
T3 sequence (P27986 whole entry partner): as the sequence (P27986 whole entry partner) above
T1 sequence (P42336 whole entry): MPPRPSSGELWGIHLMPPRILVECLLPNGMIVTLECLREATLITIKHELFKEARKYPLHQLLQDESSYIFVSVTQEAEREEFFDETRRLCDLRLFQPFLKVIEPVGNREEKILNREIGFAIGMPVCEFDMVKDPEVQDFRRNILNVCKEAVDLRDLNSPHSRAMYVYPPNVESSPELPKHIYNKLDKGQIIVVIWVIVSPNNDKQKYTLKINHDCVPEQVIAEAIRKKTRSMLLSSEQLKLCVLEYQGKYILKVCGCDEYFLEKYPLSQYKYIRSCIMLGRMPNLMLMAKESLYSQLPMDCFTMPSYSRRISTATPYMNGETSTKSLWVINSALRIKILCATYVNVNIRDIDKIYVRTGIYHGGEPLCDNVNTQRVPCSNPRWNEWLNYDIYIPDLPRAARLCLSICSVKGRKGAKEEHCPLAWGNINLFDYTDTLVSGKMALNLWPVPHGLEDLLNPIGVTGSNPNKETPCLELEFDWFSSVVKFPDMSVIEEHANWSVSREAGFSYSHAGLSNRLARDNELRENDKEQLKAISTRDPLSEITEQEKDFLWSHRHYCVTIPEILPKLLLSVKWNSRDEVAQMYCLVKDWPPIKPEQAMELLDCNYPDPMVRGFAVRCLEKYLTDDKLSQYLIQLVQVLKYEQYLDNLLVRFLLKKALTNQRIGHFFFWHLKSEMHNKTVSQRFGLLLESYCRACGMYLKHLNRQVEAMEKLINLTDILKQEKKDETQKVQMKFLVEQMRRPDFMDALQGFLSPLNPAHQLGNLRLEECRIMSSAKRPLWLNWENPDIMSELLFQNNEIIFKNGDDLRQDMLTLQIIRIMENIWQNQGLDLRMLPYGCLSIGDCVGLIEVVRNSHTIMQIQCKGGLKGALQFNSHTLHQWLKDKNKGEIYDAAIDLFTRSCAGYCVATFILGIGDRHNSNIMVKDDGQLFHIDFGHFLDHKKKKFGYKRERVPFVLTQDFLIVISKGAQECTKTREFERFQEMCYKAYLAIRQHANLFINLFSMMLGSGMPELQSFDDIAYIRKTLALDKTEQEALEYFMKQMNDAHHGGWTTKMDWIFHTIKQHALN
T1 sequence (P27986 whole entry partner): as the sequence (P27986 whole entry partner) above
T2 sequence (P48736 whole entry): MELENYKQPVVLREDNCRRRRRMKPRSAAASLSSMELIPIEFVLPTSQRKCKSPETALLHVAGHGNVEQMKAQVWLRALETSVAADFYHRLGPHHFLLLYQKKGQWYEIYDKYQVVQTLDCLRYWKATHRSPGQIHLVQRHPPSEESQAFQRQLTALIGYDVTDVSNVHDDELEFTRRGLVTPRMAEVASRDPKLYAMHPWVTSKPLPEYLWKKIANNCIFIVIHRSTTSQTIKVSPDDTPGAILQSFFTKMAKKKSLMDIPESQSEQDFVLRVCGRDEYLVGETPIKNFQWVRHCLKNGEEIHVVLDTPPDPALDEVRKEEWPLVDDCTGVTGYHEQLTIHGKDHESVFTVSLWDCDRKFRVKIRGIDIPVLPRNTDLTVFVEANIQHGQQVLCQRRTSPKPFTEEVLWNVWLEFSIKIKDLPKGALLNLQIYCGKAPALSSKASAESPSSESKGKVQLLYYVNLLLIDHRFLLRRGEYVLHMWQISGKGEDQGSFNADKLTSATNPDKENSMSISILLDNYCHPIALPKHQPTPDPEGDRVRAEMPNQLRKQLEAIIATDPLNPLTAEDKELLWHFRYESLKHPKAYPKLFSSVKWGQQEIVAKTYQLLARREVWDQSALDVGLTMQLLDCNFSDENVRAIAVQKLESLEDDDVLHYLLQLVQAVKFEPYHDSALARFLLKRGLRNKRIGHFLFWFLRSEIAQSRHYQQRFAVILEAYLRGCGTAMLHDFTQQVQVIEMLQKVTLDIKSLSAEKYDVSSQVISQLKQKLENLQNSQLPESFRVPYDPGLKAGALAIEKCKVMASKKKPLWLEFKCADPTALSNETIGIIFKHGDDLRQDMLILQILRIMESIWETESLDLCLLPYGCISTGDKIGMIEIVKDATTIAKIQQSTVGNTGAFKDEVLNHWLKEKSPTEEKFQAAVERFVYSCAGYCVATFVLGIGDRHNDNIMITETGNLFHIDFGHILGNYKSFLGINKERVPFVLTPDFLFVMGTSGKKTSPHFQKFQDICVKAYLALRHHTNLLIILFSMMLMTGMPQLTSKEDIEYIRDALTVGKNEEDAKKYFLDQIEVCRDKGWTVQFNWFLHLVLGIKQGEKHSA

Take `CS(=O)(=O)C1(c2cc(-c3ccc(N)cc3C(F)(F)F)nc(N3CCOCC3)n2)CC1` [Comparative compound 3, 4-(6-(1-(methylsulfonyl)cyclopropyl)-2-morpholinopyrimidin-4-yl)-3-(trifluoromethyl)aniline, reference compound]: in experiment [1] (setting [7]), the IC50 was over 1000 nM.
Consider `CS(=O)(=O)C1(c2cc(-c3cnc(N)cc3C(F)(F)F)nc(N3CCOCC3)n2)CC1` [Compound S-1, 5-(6-(1-(methylsulfonyl)cyclopropyl)-2-morpholinopyrimidin-4-yl)-4-(trifluoromethyl)pyridin-2-amine], for which the IC50 came to 16 nM in experiment [1] (setting [8]) and 288 nM in experiment [2].
`CC(C)(c1cc(-c2cnc(N)cc2C(F)(F)F)nc(N2CCOCC2)n1)S(C)(=O)=O` [Compound S-16]: the IC50 in experiment [3] stood at 196 nM; in experiment [4], 244 nM; in experiment [2] it was 138 nM.
Consider `CNC1(c2cc(-c3cnc(N)cc3C(F)(F)F)nc(N3CCOC[C@@H]3C)n2)CCC1` [Compound S-27, (S)-5-(6-(1-(methylamino)cyclobutyl)-2-(3-methylmorpholino)pyrimidin-4-yl)-4-(trifluoromethyl)pyridin-2-amine], for which, in experiment [1] (setting [7]), the IC50 amounted to 285 nM.
For the compound `CCS(=O)(=O)C1(c2cc(-c3cnc(N)cc3C(F)(F)F)nc(N3CCOCC3)n2)CC1` [Compound S-28], the IC50 worked out at 121 nM in experiment [3], 78 nM in experiment [4] and 765 nM in experiment [2].
As to `C[C@H]1COCCN1c1nc(-c2cnc(N)cc2C(F)(F)F)cc(C2(S(C)(=O)=O)CCCC2)n1` [Compound S-42], the IC50 in experiment [3] turned out to be 1210 nM; in experiment [4], 324 nM; in experiment [2], 718 nM; in experiment [5], 139 nM; in experiment [6] it was 159 nM.
For the compound `COc1nc(N)ncc1-c1cc(C2(S(C)(=O)=O)CCC2)nc(N2CCOC[C@@H]2C)n1` [Compound S-43], the IC50 in experiment [5] was 317 nM.
On to `CC(C)(c1cc(-c2cnc(N)cc2Cl)nc(N2CCOCC2)n1)S(=O)(=O)c1ccccc1` [Compound S-55, 4-chloro-5-(2-morpholinyl-6-(2-(phenylsulfonyl)propan-2-yl)pyrimidin-4-yl)pyridin-2-amine], for which, in experiment [1] (setting [7]), the IC50 is 40 nM.
On the same count and under the same terms, the result for `CC(C)(c1cc(-c2cnc(N)cc2C(F)(F)F)nc(N2CCOCC2)n1)S(=O)(=O)c1cccc(F)c1` [Compound S-60] reads 35 nM.
Still for that read-out and setting: the result for `Cc1cnc(C2(c3cc(-c4cnc(N)cc4C(F)(F)F)nc(N4CCOCC4)n3)CC2)o1` [Compound S-61, 5-(6-(1-(5-methyloxazol-2-yl)cyclopropyl)-2-morpholinopyrimidin-4-yl)-4-(trifluoromethyl)pyridin-2-amine] reads 195 nM; that for `CS(=O)(=O)Cc1cc(-c2cnc(N)cc2C(F)(F)F)nc(N2CCOCC2)n1` [Compound S-62, 5-(6-(methylsulfonylmethyl)-2-morpholinopyrimidin-4-yl)-4-(trifluoromethyl)pyridin-2-amine], 189 nM.
Consider `CC(C)(c1cc(-c2cnc(N)cc2C(F)(F)F)nc(N2CCOCC2)n1)S(=O)(=O)c1ccccc1F` [Compound S-65], for which the IC50 in experiment [1] (setting [8]) was 22 nM; in experiment [1] (setting [7]) it was 22 nM; in experiment [3], 1220 nM; in experiment [5], 280 nM; in experiment [6], 469 nM.
In the case of `CC(C)(c1cc(-c2cnc(N)cc2C(F)(F)F)nc(N2CCOCC2)n1)S(=O)(=O)c1ccc(F)cc1` [Compound S-69], in experiment [1] (setting [7]), the IC50 is 59 nM.
In the case of `CC(C)(c1cc(-c2cnc(N)cc2Cl)nc(N2CCOCC2)n1)S(=O)(=O)c1cccc(F)c1` [Compound S-70], the IC50 in experiment [1] (setting [8]) came to 22 nM; in experiment [1] (setting [7]) it was 22 nM; in experiment [3], 525 nM; in experiment [5], 219 nM.
Regarding `C[C@@H]1COCCN1c1nc(-c2cnc(N)cc2C(F)(F)F)cc(C(C)(C)O)n1` [Compound S-72], the IC50 in experiment [1] (setting [8]) stood at 18 nM; in experiment [1] (setting [7]), 18 nM; in experiment [3] it was 797 nM; in experiment [4] it was 370 nM; in experiment [2], 1150 nM.
As to `C[C@H]1COCCN1c1nc(-c2cnc(N)cc2Cl)cc(C(C)(C)O)n1` [Compound S-73], the IC50 worked out at 14 nM in experiment [1] (setting [8]); 14 nM in experiment [1] (setting [7]); 396 nM in experiment [3]; 514 nM in experiment [4]; 623 nM in experiment [2]; 176 nM in experiment [6].
For `COC(C)(C)c1cc(-c2cnc(N)cc2C(F)(F)F)nc(N2CCOC[C@H]2C)n1` [Compound S-74], the IC50 in experiment [1] (setting [8]) is 28 nM; in experiment [1] (setting [7]), 28 nM; in experiment [3], 2090 nM; in experiment [4], 1010 nM; in experiment [2] it was 2500 nM.
As to `Nc1cc(C(F)(F)F)c(-c2cc(C3(S(=O)(=O)c4ccc(F)c(F)c4)CC3)nc(N3CCOCC3)n2)cn1` [Compound S-77], the IC50 in experiment [1] (setting [7]) stood at 62 nM.
`CC(C)(c1cc(-c2cnc(N)cc2C(F)(F)F)nc(N2CCOCC2)n1)S(=O)(=O)c1ccc(F)c(F)c1` [Compound S-79]: the IC50 in experiment [1] (setting [7]) came out at 55 nM.
As to `CC(C)(c1cc(-c2cnc(N)cc2C(F)(F)F)nc(N2CCOCC2)n1)S(=O)(=O)c1ccccc1Cl` [Compound S-80], the IC50 in experiment [1] (setting [7]) amounted to 31 nM; in experiment [6] it was 474 nM.
In the case of `CS(=O)(=O)NC1(c2cc(-c3cnc(N)cc3Cl)nc(N3CCOCC3)n2)CC1` [Compound S-90], in experiment [1] (setting [7]), the IC50 was 75 nM.
